Activity calls are given as the source filed them. No cut-off for these calls is given here.
Assays:
[1] = system: Staphylococcus aureus; experiment: Antibacterial activity against Staphylococcus aureus MTCC 96 at 100 ug/ml by cup-plate method; type: functional; conditions: read-out: DIZ
[2] = system: Escherichia coli; experiment: Antibacterial activity against Escherichia coli MTCC 739 at 200 ug/ml by cup-plate method; type: functional; conditions: read-out: DIZ
[3] = system: Escherichia coli; experiment: Antibacterial activity against Escherichia coli MTCC 739 at 50 ug/ml by cup-plate method; type: functional; conditions: read-out: DIZ
[4] = system: Staphylococcus aureus; experiment: Antibacterial activity against Staphylococcus aureus MTCC 96 at 300 ug/ml by cup-plate method; type: functional; conditions: read-out: DIZ
[5] = system: Escherichia coli; experiment: Antibacterial activity against Escherichia coli MTCC 739 at 100 ug/ml by cup-plate method; type: functional; conditions: read-out: DIZ
[6] = system: Bacillus subtilis; experiment: Antibacterial activity against Bacillus subtilis MTCC 121 by cup plate method; type: functional, organism-based
[7] = system: Bacillus subtilis; experiment: Antibacterial activity against Bacillus subtilis MTCC 121 at 300 ug/ml by cup plate method; type: functional; conditions: read-out: DIZ
[8] = system: Staphylococcus aureus; experiment: Antibacterial activity against Staphylococcus aureus MTCC 96 at 50 ug/ml by cup-plate method; type: functional; conditions: read-out: DIZ
[9] = system: Bacillus subtilis; experiment: Antibacterial activity against Bacillus subtilis MTCC 121 at 50 ug/ml by cup plate method; type: functional; conditions: read-out: DIZ
[10] = system: Bacillus subtilis; experiment: Antibacterial activity against Bacillus subtilis MTCC 121 at 200 ug/ml by cup plate method; type: functional; conditions: read-out: DIZ
[11] = system: Escherichia coli; experiment: Antibacterial activity against Escherichia coli MTCC 739 at 300 ug/ml by cup-plate method; type: functional; conditions: read-out: DIZ
[12] = system: Pseudomonas aeruginosa; experiment: Antibacterial activity against Pseudomonas aeruginosa MTCC 2453 at 200 ug/ml by cup-plate method; type: functional; conditions: read-out: DIZ
[13] = system: Candida albicans; experiment: Antifungal activity against Candida albicans MTCC 227 at 50 to 300 ug/ml by cup-plate method; type: functional, organism-based
[14] = system: Pseudomonas aeruginosa; experiment: Antibacterial activity against Pseudomonas aeruginosa MTCC 2453 at 300 ug/ml by cup-plate method; type: functional; conditions: read-out: DIZ
[15] = system: Staphylococcus aureus; experiment: Antibacterial activity against Staphylococcus aureus MTCC 96 by cup-plate method; type: functional, organism-based
[16] = system: Staphylococcus aureus; experiment: Antibacterial activity against Staphylococcus aureus MTCC 96 at 200 ug/ml by cup-plate method; type: functional; conditions: read-out: DIZ
[17] = system: Pseudomonas aeruginosa; experiment: Antibacterial activity against Pseudomonas aeruginosa MTCC 2453 at 50 ug/ml by cup-plate method; type: functional; conditions: read-out: DIZ
[18] = system: Escherichia coli; experiment: Antibacterial activity against Escherichia coli MTCC 739 by cup-plate method; type: functional, organism-based
[19] = system: Pseudomonas aeruginosa; experiment: Antibacterial activity against Pseudomonas aeruginosa MTCC 2453 by cup-plate method; type: functional, organism-based
[20] = system: Bacillus subtilis; experiment: Antibacterial activity against Bacillus subtilis MTCC 121 at 100 ug/ml by cup plate method; type: functional; conditions: read-out: DIZ
[21] = system: Pseudomonas aeruginosa; experiment: Antibacterial activity against Pseudomonas aeruginosa MTCC 2453 at 100 ug/ml by cup-plate method; type: functional; conditions: read-out: DIZ

Structure (SMILES)	zone of inhibition at 100 µg/mL [1] [mm]	zone of inhibition at 200 µg/mL [2] [mm]	zone of inhibition at 50 µg/mL [3] [mm]	zone of inhibition at 300 µg/mL [4] [mm]	zone of inhibition at 100 µg/mL [5] [mm]	Activity [6]	zone of inhibition at 300 µg/mL [7] [mm]	zone of inhibition at 50 µg/mL [8] [mm]	zone of inhibition at 50 µg/mL [9] [mm]	zone of inhibition at 200 µg/mL [10] [mm]	zone of inhibition at 300 µg/mL [11] [mm]	zone of inhibition at 200 µg/mL [12] [mm]	Activity [13]	zone of inhibition at 300 µg/mL [14] [mm]	Activity [15]	zone of inhibition at 200 µg/mL [16] [mm]	zone of inhibition at 50 µg/mL [17] [mm]	Activity [18]	Activity [19]	zone of inhibition at 100 µg/mL [20] [mm]	further results
O=C1N/C(=N\c2ccc(F)c(Cl)c2)S/C1=C\c1ccccc1	10	11	7	10	8	Dose-dependent effect	12	6	6	10	12	10	inactive	12	Dose-dependent effect	10	8	Dose-dependent effect	Dose-dependent effect	6	zone of inhibition at 100 µg/mL [21]: 10 mm
O=C1N/C(=N\c2ccc(Cl)cc2)S/C1=C\c1ccc(Cl)cc1	8	7	8	10	8	Dose-dependent effect	10	6	7	8	9	8	inactive	10	Dose-dependent effect	9	6	Dose-dependent effect	Dose-dependent effect	8	zone of inhibition at 100 µg/mL [21]: 7 mm
O=C1N/C(=N\c2ccc(Cl)cc2)S/C1=C\c1ccccc1Cl	8	10	9	10	9	Dose-dependent effect	10	8	8	9	9	9	inactive	9	Dose-dependent effect	9	9	Dose-dependent effect	Dose-dependent effect	8	zone of inhibition at 100 µg/mL [21]: 9 mm
O=C1N/C(=N\c2cccc(Cl)c2)S/C1=C\c1ccccc1Cl	8	8	7	9	7	Dose-dependent effect	9	7	7	8	8	7	inactive	8	Dose-dependent effect	8	6	Dose-dependent effect	Dose-dependent effect	8	zone of inhibition at 100 µg/mL [21]: 7 mm
O=C1N/C(=N\c2cccc(Cl)c2)S/C1=C\c1ccc(O)cc1	9	8	7	10	7	Dose-dependent effect	9	8	6	8	9	9	inactive	10	Dose-dependent effect	9	7	Dose-dependent effect	Dose-dependent effect	7	zone of inhibition at 100 µg/mL [21]: 8 mm
O=C1N/C(=N\c2ccc(Cl)cc2)S/C1=C\c1ccccc1[N+](=O)[O-]	9	9	6	10	8	Dose-dependent effect	11	8	8	10	9	8	inactive	9	Dose-dependent effect	10	7	Dose-dependent effect	Dose-dependent effect	9	zone of inhibition at 100 µg/mL [21]: 8 mm
COc1cc(/C=C2\S/C(=N/c3ccc(Cl)cc3)NC2=O)ccc1O	6	9	7	8	8	Dose-dependent effect	7	6	6	7	9	8	inactive	9	Dose-dependent effect	7	7	Dose-dependent effect	Dose-dependent effect	7	zone of inhibition at 100 µg/mL [21]: 7 mm
O=C1N/C(=N\c2cccc(Cl)c2)S/C1=C\c1ccc(Cl)cc1	8	9	7	10	9	Dose-dependent effect	10	7	7	10	9	8	inactive	8	Dose-dependent effect	9	7	Dose-dependent effect	Dose-dependent effect	8	zone of inhibition at 100 µg/mL [21]: 8 mm
O=C1N/C(=N\c2ccc(F)c(Cl)c2)S/C1=C\c1cccc([N+](=O)[O-])c1	12	9	7	16	8	Dose-dependent effect	15	11	12	14	10	11	inactive	12	Dose-dependent effect	14	8	Dose-dependent effect	Dose-dependent effect	12	zone of inhibition at 100 µg/mL [21]: 10 mm
COc1cc(/C=C2\S/C(=N/c3cccc(Cl)c3)NC2=O)ccc1O	7	9	7	8	8	Dose-dependent effect	9	6	7	8	9	9	inactive	9	Dose-dependent effect	8	6	Dose-dependent effect	Dose-dependent effect	8	zone of inhibition at 100 µg/mL [21]: 8 mm

Source: ChEMBL document CHEMBL3044899, “Effect of chloro and fluoro groups on the antimicrobial activity of 2,5-disubstituted 4-thiazolidinones: a comparative study” (2012)
